Data from patent publication US10227349B2, “Pyrazolo[1,5-a]pyrimidine compound” (Eisai R&D Management Co., Ltd., priority 2016, dated 2019).

System: tape stripping-induced skin barrier disruption in Hos: HR-1 mice
Test: Mouse model of skin barrier disruption induced by tape stripping (TEWL)
Type: in vivo
Settings: TEWL 0 and 1 hour after stripping, average ± standard deviation, n=10
Procedure: The effect of the test compounds on the skin barrier functions was evaluated using a model with skin barrier disruption induced by tape stripping. Trans-epidermal water loss (TEWL) is an evaluation indicator of the skin barrier functions (Journal of Investigative Dermatology, 126, p 2074-2086 (2006)).
Seven-week old male Hos: HR-1 mice (Hoshino Laboratory Animals, Inc.) were subjected to the test (n=10 for each treatment). For oral administration, solutions of test compounds with different concentrations were prepared as follows. […]
(2) The solution of the test compound prepared in (1) was diluted with a 0.5% methylcellulose solution to prepare a solution of the test compound so that the concentration of the test compound was 0.3 mg/mL. TEWL was measured before the test compound was administered (termed as TEWL [pre]). After the TEWL [pre] was measured, the solution of the test compound adjusted as in (1) or (2) was administered orally (dose: 10 mL/kg). […] TEWL immediately after and 1 hour after the tape stripping were measured (termed as TEWL [0 hour], TEWL [1 hour], respectively), % Barrier recovery was calculated in accordance with the following formula. % Barrier Recovery={(TEWL [0 hour]−TEWL [1 hour])/(TEWL [0 hour]−TEWL [pre])}*100
The result was expressed as the average ± standard deviation of the % barrier recovery. […]

CO[C@H]1CN(C(=O)c2cc3nc(-c4cc(F)c(Cl)c(F)c4)cc(N(C)c4c(C)cccc4F)n3n2)CC[C@H]1CC(=O)O [Example 10, 2-((3R,4S)-1-(5-(4-chloro-3,5-difluorophenyl)-7-((2-fluoro-6-methylphenyl)(methyl)amino)pyrazolo[1,5-a]pyrimidine-2-carbonyl)-3-methoxypiperidin-4-yl)acetic acid]
% Barrier recovery (3 mg/kg orally 1 hour before tape stripping): 24.2 ± 8.1% | % Barrier recovery (10 mg/kg orally 1 hour before tape stripping, p < 0.05 versus Vehicle): 53.5 ± 4.9 %
